Common to all, as to type: functional
Assay [1] is described as follows: Antiproliferative activity against human HCV29T cells by SRB method. In general terms: In SRB staining, fixed cells bind dye roughly in proportion to their protein.
A further assay relates to T47D. Put plainly: Antiproliferative activity against human T47D cells by SRB method.
Assay [2] is described as follows: Antiproliferative activity against human SW707 cells by SRB method.
For the next assay, the system named is A549. Put plainly: Antiproliferative activity against human A549 cells by SRB method.

As to `Oc1ccc(-c2nnc(COc3cccc(F)c3)s2)c(O)c1`, the “log(1/ID50)” value in assay [1] is -2.093.

With `Oc1ccc(-c2nnc(Cc3cccc4ccccc34)s2)c(O)c1`, the “log(1/ID50)” value in assay [1] was -1.923; in the assay with T47D, -1.629; in assay [2], -1.926; in the assay with A549, -1.865.

`Oc1ccc(-c2nnc(-c3cccc4ccccc34)s2)c(O)c1`: the “log(1/ID50)” value was -1.871 in assay [1], -1.18 in the assay with T47D, -1.766 in assay [2] and -1.828 with A549.

Regarding `Oc1ccc(-c2nnc(-c3ccc(-c4ccccc4)cc3)s2)c(O)c1`, the “log(1/ID50)” value in assay [1] is recorded as -1.693; in the assay with T47D, -1.407; in assay [2], -1.161; in the assay with A549, -1.28.

`COc1nnc(-c2ccc(O)cc2O)s1`: in assay [1], the “log(1/ID50)” value is -2.343.

Regarding `Oc1ccc(-c2nnc(-c3ccco3)s2)c(O)c1`, the “log(1/ID50)” value in assay [1] was -2.178; in the assay on T47D it was -2.196; in assay [2] it was <-2.585; in the assay on A549, <-2.585.

Regarding `Oc1ccc(-c2nnc(-c3ccc(O)cc3O)s2)c(O)c1`, the “log(1/ID50)” value in assay [1] is given as -2.045.

On to `Oc1ccc(-c2nnc(Cc3ccccc3)s2)c(O)c1`, for which the “log(1/ID50)” value in assay [1] is on record as -2.09.

As to `OCCCc1nnc(-c2ccc(O)cc2O)s1`, the “log(1/ID50)” value in assay [1] was -2.232.

For `Oc1ccc(-c2nnc(-c3cc4ccccc4s3)s2)c(O)c1`, in assay [1], the “log(1/ID50)” value is recorded as -1.848.

Turning to `Oc1cc(O)cc(-c2nnc(-c3ccc(O)cc3O)s2)c1`, the “log(1/ID50)” value in assay [1] is -2.182.

On to `CCCCCCCCCCCCCCCc1nnc(-c2ccc(O)cc2O)s1`, for which the “log(1/ID50)” value in assay [1] is <-2.393.

On to `Oc1ccc(-c2nnc(COc3ccc(F)cc3)s2)c(O)c1`, for which the “log(1/ID50)” value in assay [1] is reported as -1.999.

With `Oc1ccc(-c2nnc(COc3ccccc3Cl)s2)c(O)c1`, the “log(1/ID50)” value was -2.061 in assay [1], -1.494 in the assay on T47D, -2.037 in assay [2] and -2.108 in the assay with A549.

As to `COc1cccc(COc2nnc(-c3ccc(O)cc3O)s2)c1`, the “log(1/ID50)” value in assay [1] is listed as -0.522; in the assay on T47D, -0.958; in assay [2] it was -1.18; in the assay on A549 it was -1.379.

On to `Oc1ccc(-c2nnc(-c3ccccc3Br)s2)c(O)c1`, for which the “log(1/ID50)” value is reported as -1.919 in assay [1], -1.444 with T47D, -1.89 in assay [2] and -1.912 in the assay on A549.

As for `Oc1ccc(-c2nnc(CCCCc3nnc(-c4ccc(O)cc4O)s3)s2)c(O)c1`, the “log(1/ID50)” value is -1.421 in assay [1], <-2.354 with T47D, -1.025 in assay [2] and -1.42 with A549.

For `Oc1ccc(-c2nnc(-c3ccncc3)s2)c(O)c1`, the “log(1/ID50)” value in assay [1] is <-2.567.

For `O=[N+]([O-])c1ccc(OCc2nnc(-c3ccc(O)cc3O)s2)cc1`, the “log(1/ID50)” value in assay [1] is listed as -2.429.

On to `CC(C)(C)c1ccc(-c2nnc(-c3ccc(O)cc3O)s2)cc1`, for which the “log(1/ID50)” value in assay [1] is -1.057; in the assay with T47D it was -1.088; in assay [2] it was -1.139; in the assay with A549, -1.593.

On to `CCOc1ccc(-c2nnc(-c3ccc(O)cc3O)s2)cc1`, for which the “log(1/ID50)” value in assay [1] is -2.016.

On to `Cc1cc(Cl)ccc1OCc1nnc(-c2ccc(O)cc2O)s1`, for which the “log(1/ID50)” value in assay [1] is given as -1.816; in the assay with T47D, -1.402; in assay [2], -2.117; in the assay with A549 it was -1.964.

Take `Oc1ccc(-c2nnc(-c3ccccc3)s2)c(O)c1`: in assay [1], the “log(1/ID50)” value is -2.276.

Regarding `Oc1ccc(-c2nnc(-c3ccccn3)s2)c(O)c1`, in assay [1], the “log(1/ID50)” value is recorded as -2.152.

Take `Oc1ccc(-c2nncs2)c(O)c1`: in assay [1], the “log(1/ID50)” value is reported as -2.25.

Take `COc1cc(-c2nnc(-c3ccc(O)cc3O)s2)cc(OC)c1O`: in assay [1], the “log(1/ID50)” value is reported as -2.027.

For `CCOc1nnc(-c2ccc(O)cc2O)s1`, the “log(1/ID50)” value in assay [1] is recorded as -2.305.

In the case of `Cc1cccc(-c2nnc(-c3ccc(O)cc3O)s2)c1O`, the “log(1/ID50)” value in assay [1] is on record as -1.745; in the assay on T47D it was -1.273; in assay [2], -1.746; in the assay with A549 it was -1.292.

For `Oc1ccc(-c2nnc(COc3ccc(Cl)cc3Cl)s2)c(O)c1`, the “log(1/ID50)” value in assay [1] is given as -2.41.

Turning to `Oc1ccc(-c2nnc(-c3ccccc3O)s2)c(O)c1`, the “log(1/ID50)” value in assay [1] is recorded as -2.083.

Take `Oc1ccc(-c2nnc(C(O)c3ccccc3)s2)c(O)c1` (stereo not drawn): the “log(1/ID50)” value is on record as -1.857 in assay [1], -2.148 in the assay on T47D, -2.027 in assay [2] and -2.139 in the assay with A549.

Turning to `CCOc1cccc(-c2nnc(-c3ccc(O)cc3O)s2)c1`, the “log(1/ID50)” value in assay [1] is listed as -2.04.

For the origin of these results see ChEMBL document CHEMBL1147847, “Evaluation of electronic, lipophilic and membrane affinity effects on antiproliferative activity of 5-substituted-2-(2,4-dihydroxyphenyl)-1,3,4-thiadiazoles against various human cancer cells” (2007).
